Test results from patent publication US6046239A, “Anthranilic acid analogs” (American Home Products Corporation, priority 1998, dated 2000).
Where a name gives a salt, the structure may show the parent alone. Read-outs that look alike come from different tables or passages of the source.

Assays:
[1] = tested on: Isolated Rat Bladder Strips; experiment: Inhibition of contractions in isolated rat bladder strips; assay type: cell-based; settings: for IC50: contractions enhanced by additional 15 mM KCl, read-out: IC50 /μM Bladder (B); for IC50 (A)/ IC50 (B): ratio aorta/bladder, indication of selectivity
Description: Sprague-Dawley rats (150-200 g) are rendered unconscious by CO2 asphyxiation and then euthanized by cervical dislocation. […] The bladder is opened and then cut into strips 1-2 mm in width and 7-10 mm in length. The strips are subsequently suspended in a 10 mL tissue bath under an initial resting tension of 1.5 g. The strips are held in place by two surgical clips one of which is attached to a fixed hook while the other is attached to an isometric force transducer. […] The carbachol is then washed out and the tissue allowed to relax to its resting level of activity. Following a further 30 min period of recovery an additional 15 mM KCl are introduced into the tissue bath. […] Following stabilization of this enhanced level of contractile activity, incremental increases in the concentration of test compound or vehicle are introduced into the tissue bath. Contractile activity is measured for each compound or vehicle concentration during the last minute of a 30 minute challenge.

[2] = tested on: Aorta; experiment: Inhibition of contractions in aorta (indication of selectivity); assay type: cell-based; settings: aorta
[3] = tested on: hypertrophied bladder (detrussor) smooth muscle; experiment: Inhibition of spontaneous contractions in vivo, hypertrophied rat bladder model; settings: 30 mg/kg i.v.
Text: In addition, we tested the ability of compounds to inhibit the hyperactivity of hypertrophied bladder (detrussor) smooth muscle in conscious female rats with hypertrophied bladders and thereby alleviate urinary incontinence in rats according to the following protocol described by Malmgrem (A. Malmgrem, K. E. Andersson, C. Sjogren, P. O. Andersson, Effects of Pinacidil and Cromakalim (BRL 34915) on Bladder Function in Rats with Detrusor Instability, J. Urol. 142:1134, 1989.):
Female Sprague-Dawley rats, ranging in weight from 190-210 g are used. Up to 25 animals are prepared each time. After development of bladder hypertrophy 4-8 animals are used per test.
Compounds are dissolved in PEG-200 and administered by gastric gavage or intraveneously in a volume of 5 mL/kg. For primary screening all drugs are administered at the arbitrary dose of 10 mg/kg p.o. to groups of 4 rats.
The animals are anesthetized with halothane. […]
The following urodynamic variables are recorded:
The mean value of each variable is calculated before and after compound administration. For each compound the changes in the variables measured are compared to the values obtained before treatment and expressed as percent inhibition. The data are also subjected to 2-way analysis of variance to determine significant (p<0.05) changes in the variable measured. […]

[4] = molecular target: T1, calcium-dependent large conductance potassium channels (maxi K^+) (Rattus norvegicus, UniProt Q62976); experiment: Potassium channel activation, whole cell patch clamp in isolated rat detrusor cells; assay type: cell-based; settings: glyburide 5 μM added to the superfusate; data not shown
T1 construct: endogenous in cells; host or cells: freshly isolated rat detrusor (urinary bladder smooth muscle) cells
Description: Potassium channel activation by compounds of the present invention was established by examining the effect of the compound of Example 1 on calcium-dependent large conductance potassium channels (maxi K^+) as follows:
Rat detrusor cells were isolated in a manner previously described for guinea-pig detrusor (Sheldon and Argentieri, 1995). Male Sprague-Dawley rats (200-400 grams) were euthanized by CO2 inhalation and exsanguination. Their urinary bladders were rapidly removed and placed in 37° C. physiological solution with the following composition (mM): Na glutamate (80.0), NaCl (54.7), KCl (5.0), NaHCO3 (25.0), MgCl2.2H2 O (2.5), D-glucose (11.8) and CaCl2 (0.2) gassed with CO2 --O2, 95%/5% for a final pH of 7.4. The dome of the bladder was isolated from the trigon region and the mucosa was removed. This tissue was then cut into 2-3 mm wide strips and placed in fresh buffer for 1 hour. Tissues were then transferred into 10.0 ml of an isolation buffer containing the above composition plus collagenase type VIII (1.0 mg/ml) and pronase (0.25 mg/ml). After 10 minutes the isolation buffer was replaced with fresh isolation buffer for an additional 10 min. […]
Whole cell recordings were made using broken patch assess. […] After stability was achieved control currents were recorded. […] Currents were recorded for 5 to 10 minutes or until compound effects reached steady state. […]

[5] = Rattus norvegicus, isolated rat bladder strips
[6] = isolated rat bladder strips, lithium salt hemihydrate

T1 sequence (Q62976 whole entry): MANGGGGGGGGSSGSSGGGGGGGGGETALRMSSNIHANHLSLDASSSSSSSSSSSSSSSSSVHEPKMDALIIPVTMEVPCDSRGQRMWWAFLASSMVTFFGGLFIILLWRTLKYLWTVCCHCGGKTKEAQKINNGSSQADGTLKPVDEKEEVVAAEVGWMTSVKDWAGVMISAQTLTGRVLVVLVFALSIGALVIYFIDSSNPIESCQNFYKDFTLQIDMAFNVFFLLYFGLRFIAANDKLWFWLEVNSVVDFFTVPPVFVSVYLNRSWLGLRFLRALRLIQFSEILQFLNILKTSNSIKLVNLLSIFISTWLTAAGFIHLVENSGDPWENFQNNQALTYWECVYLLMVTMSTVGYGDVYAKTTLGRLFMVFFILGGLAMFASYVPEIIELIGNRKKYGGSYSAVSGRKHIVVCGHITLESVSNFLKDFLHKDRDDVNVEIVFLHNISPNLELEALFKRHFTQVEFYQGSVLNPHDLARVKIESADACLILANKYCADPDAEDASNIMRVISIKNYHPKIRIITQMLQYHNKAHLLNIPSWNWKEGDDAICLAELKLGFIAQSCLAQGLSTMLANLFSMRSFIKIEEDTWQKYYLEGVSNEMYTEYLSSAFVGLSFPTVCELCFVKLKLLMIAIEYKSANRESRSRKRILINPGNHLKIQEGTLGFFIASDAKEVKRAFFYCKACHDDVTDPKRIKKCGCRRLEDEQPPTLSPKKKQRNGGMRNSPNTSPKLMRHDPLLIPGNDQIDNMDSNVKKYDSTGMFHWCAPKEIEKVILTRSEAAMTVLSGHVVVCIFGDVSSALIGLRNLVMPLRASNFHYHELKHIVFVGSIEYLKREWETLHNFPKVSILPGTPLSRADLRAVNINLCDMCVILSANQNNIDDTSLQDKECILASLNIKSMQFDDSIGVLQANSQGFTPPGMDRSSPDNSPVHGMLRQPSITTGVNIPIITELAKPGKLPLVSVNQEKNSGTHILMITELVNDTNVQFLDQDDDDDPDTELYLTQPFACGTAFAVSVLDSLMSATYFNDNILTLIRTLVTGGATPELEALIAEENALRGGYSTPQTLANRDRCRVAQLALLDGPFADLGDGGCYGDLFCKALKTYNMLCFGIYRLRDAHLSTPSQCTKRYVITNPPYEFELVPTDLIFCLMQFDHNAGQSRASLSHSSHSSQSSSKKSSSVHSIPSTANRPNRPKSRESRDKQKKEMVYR
T1 sequence (P97678 whole entry partner): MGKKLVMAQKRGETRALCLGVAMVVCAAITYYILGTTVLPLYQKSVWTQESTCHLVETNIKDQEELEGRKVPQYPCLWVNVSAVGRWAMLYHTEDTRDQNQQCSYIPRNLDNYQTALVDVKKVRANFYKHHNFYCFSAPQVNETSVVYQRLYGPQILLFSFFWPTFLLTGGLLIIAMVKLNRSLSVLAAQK

| IC50 [1, 5] | IC50 (A)/ IC50 (B) [1] | IC50 [2] | SMILES | also measured |
| --- | --- | --- | --- | --- |
| 14.1 ± 1.77 µM | 8.4 | 118 ± 27.6 µM | O=C(CCc1ccc(C(F)(F)F)cc1)Nc1ccccc1C(=O)O [Example 2, 2-[3-(4-Trifluoromethyl-phenyl)-propionylamino]-benzoic acid] |  |
| 4.9 ± 2.6 µM | 11 | 53.5 ± 7 µM | O=C(/C=C/c1ccc(Br)cc1)Nc1ccccc1C(=O)O [Example 3, (E)-2-[3-(4-Bromo-phenyl)-acryloylamino]-benzoic acid] |  |
| 3.37 ± 0.59 µM | 11.7 | 39.5 ± 12 µM | O=C(/C=C/c1ccc(C(F)(F)F)cc1)Nc1ccccc1C(=O)O [Example 4] |  |
|  |  |  | O=C(/C=C/c1ccc(C(F)(F)F)cc1)Nc1ccccc1C(=O)O [Example 5, (E)-2-[3[(4-Trifluoromethyl-phenyl)-acryloylamino]-benzoic acid lithium salt hemihydrate] | IC50 [1, 6]: 5.3 ± 2.8 µM; IC50 (A)/ IC50 (B) ([1]; lithium salt hemihydrate): 27.5; IC50 ([2]; lithium salt hemihydrate): 146 ± 49 µM |
| 18.1 ± 4.2 µM |  |  | C=C(CC(=O)Nc1ccccc1C(=O)O)c1ccc(C(F)(F)F)cc1 [Example 6, 2-[3-(4-Trifluoromethyl-phenyl)-but-3-enoylamino]-benzoic acid] |  |
|  |  |  | C/C(=C\C(=O)Nc1ccccc1C(=O)O)c1ccc(C(F)(F)F)cc1 [Example 7, (E)-2-[3-(4-Trifluoromethyl-phenyl)-but-2-enoylamino]-benzoic acid sodium salt] | IC50 ([1]; isolated rat bladder strips): 7.4 ± 4 µM |
|  | 3.58 | 4.23 ± 0.66 µM | C/C(=C\c1ccc(C(F)(F)F)cc1)C(=O)Nc1ccc(Cl)cc1C(=O)O [Example 8] | IC50 ([1]; isolated rat bladder strips): 1.18 ± 0.45 µM |
|  |  |  | C/C(=C\c1ccc(C(F)(F)F)cc1)C(=O)Nc1ccc(Cl)cc1C(=O)O [Example 9, (E)-5-Chloro-2-[2-methyl-3-(4-trifluoromethyl-phenyl)-acryloylamino]-benzoic acid lithium salt hemihydrate] | IC50 [1, 6]: 0.52 ± 0.24 µM; IC50 (A)/ IC50 (B) ([1]; lithium salt hemihydrate): 5.31; IC50 ([2]; lithium salt hemihydrate): 2.76 ± 1.63 µM; % Red (F): percent reduction in the total number of spontaneous contractions [3]: -71 ± 6% |
|  | 4.81 | 6.93 ± 2.4 µM | C/C(=C\c1ccc(C(F)(F)F)cc1)C(=O)Nc1cc(Cl)ccc1C(=O)O [Example 10, (E)-4-Chloro-2-[2-methyl-3-(4-trifluoromethyl-phenyl)-acryloylamino]-benzoic acid] | IC50 ([1]; isolated rat bladder strips): 1.44 ± 0.85 µM |
|  |  |  | C/C(=C\c1ccc(C(F)(F)F)cc1)C(=O)Nc1cc(Cl)ccc1C(=O)O [Example 11, (E)-4-Chloro-2-[2-methyl-3-(4-trifluoromethyl-phenyl)-acryloylamino]-benzoic acid lithium salt hemihydrate] | IC50 [1, 6]: 3.45 ± 0.75 µM |
| 11.4 ± 3.8 µM |  |  | C/C(=C\c1ccc(C(F)(F)F)cc1)C(=O)Nc1ncccc1C(=O)O [Example 12, (E)-2-[2-Methyl-3-(4-trifluoromethyl-phenyl)-acryloylamino]-nicotinic acid] |  |
| 9.6 ± 7.4 µM |  |  | COc1ccc(NC(=O)/C(C)=C/c2ccc(C(F)(F)F)cc2)c(C(=O)O)c1 [Example 13, (E)-5-Methoxy-2-[2-methyl-3-(4-trifluoromethyl-phenyl)-acryloylamino]-benzoic acid] |  |
| 10.8 ± 0.6 µM |  |  | CCN(CC)C(=O)COC(=O)c1ccccc1NC(=O)/C(C)=C/c1ccc(C(F)(F)F)cc1 [Example 14, (E)-2-[2-Methyl-3-(4-trifluoromethyl-phenyI)-acryloylamino]-benzoic acid diethylcarbamoylmethyl ester] | inhibition at 30 µM ([1]; 30 μM, isolated rat bladder strips, read-out: I = Percent inhibition at 30 μM): 35.6 ± 5% |
| 14.4 ± 4.5 µM |  | 15.6 ± 8.96 µM | COc1ccc(/C=C/C(=O)Nc2ccccc2C(=O)O)cc1OC [Tranilast, reference compound] | smooth muscle relaxant potency and bladder selectivity ([1]; bladder tissue over vascular tissue, Table 1): not to be a potent or bladder selective smooth muscle relaxant |
|  |  |  | COc1ccc(Cl)cc1C(=O)NCCc1ccc(S(=O)(=O)NC(=O)NC2CCCCC2)cc1 [glyburide, reference compound] | effect of glyburide on outward current [4]: no effect |

| SMILES | IC50 [1, 5] | IC50 (A)/ IC50 (B) [1] | IC50 [2] | also measured |
| --- | --- | --- | --- | --- |
| C/C(=C\c1ccc(C(F)(F)F)cc1)C(=O)Nc1ccccc1C(=O)O [Example 1, Step 3, (E)-2-[2-Methyl-3-(4trifluoromethyl-phenyl)-acryloylamino]-benzoic acid] | 3.7 ± 2.1 µM | 16.5 | 61.2 ± 9.2 µM |  |
